Here are results for 2 compounds from patent US20120035187A1 (priority 2009, published 2012).

Counter-ions that a name gives are not always drawn.

Data set [1] concerns APP Tg mouse. In words: Passive avoidance test, APP transgenic mouse. The settings on record: dose 200 μg/kg body weight, five times a week for 12 weeks. The format is in vivo.
Data set [2] relates to APP Tg mouse. In words: Water maze test, APP transgenic mouse. The format is in vivo. The settings on record: dose 200 μg/kg body weight, time required for arriving the platform.
The subject of another data set is PC12-HS cells. More on the design: suppression of cytotoxicity by 6-hydroxy dopa (in words): dose or concentration left out as unconfirmed.
The subject of data set [3] is brain ischemia rat. Nature of the data set: Brain ischemia (cerebral infarction model) rat: behavioral score. The class given is in vivo. More on the design: Behavioral score: scale not given here. To be noted: for Behavioral score: embolus rat, caudal vein. The procedure:
Male SD rats, seven- to eight-weeks of age and 280 to 330 g body weight, commercialized by Charles River Laboratories Japan Inc., Kanagawa, Japan, were allocated randomly into seven groups, consisting of five to seven rats in each group. Among the seven groups, five groups were subjected to the following surgery as test groups: Rats in the test groups were subcutaneously administered with 0.3 mg/kg body weight of atropine, commercialized by Fuso Pharmaceutical industries, Osaka, Japan. Successively, each rat was anesthetized by administrating 600 mg/kg body weight of urethane, commercialized by Sigma-Aldrich Co., MO, USA, and 60 mg/kg-weight of […], commercialized by Sigma-Aldrich Co., MO, USA, into the peritoneal cavity, and fixed to a fixator under voluntary breathing conditions. The right carotid artery bifurcation was exposed by median incision of the neck without damaging vagus nerve. The common carotid artery and external carotid artery around the right carotid artery bifurcation were exfoliated from surrounding connective tissue and wired respectively using “NESCOSUTURE”, a 6-0 nylon string commercialized by Alfresa Pharma Corporation, Osaka, Japan. Then, the internal carotid artery was tied with the 6-0 nylon string for fixation after insertion of an obturator. Successively, the common carotid artery was incised and a silicon-coated obturator, prepared by a 4-0 nylon string, commercialized by Doccol Corp., CA, USA, was inserted from the common carotid artery into the internal carotid artery at a distance of about 16 mm, and clipped to the common carotid artery (see, for example, Koizumi et al., Cerebral stroke, Vol. 8, No. 1, pp. 1-8 (1986)). By the method, the silicon-coated tip of obturator was inserted through the right carotid artery bifurcation to frontal cerebral artery at a distance of about 2 mm and obstructs the inlet of the medial cerebral artery. After two hours occlusion of the medial cerebral artery while keeping the rat on an isothermal pad controlled at a temperature of 37° C., blood was allowed to reperfuse by withdrawing the obturator. Then, the internal carotid artery was tied near the carotid artery bifurcation for preventing the bleeding from the incised part of the common carotid artery. In the model, the blood was reperfused through the left carotid artery, vertebral artery, basilar artery, frontal and backward communication artery because the right carotid artery was clipped.
NK-4, NK-19, NK-53, NK-100, and NK-557, used in the test, were respectively dissolved in DMSO (product No. “D8418”, commercialized by Sigma-Aldrich Co., MO, USA) to give a concentration of 5 mg/ml and filtrated using “MILLEX-LG SLLG025SS”, a DMSO-resistant membrane filter commercialized by Millipore, MA, USA. Stock […], and then 4 ml/kg body weight of any of the resulting diluted solutions was administered ([…]) to five test groups (test groups 1 to 5) consisting of five or seven rats, through their caudal veins at both after one hour from the occlusion of middle cerebral artery and immediately after initiating reperfusion. After 24 hours from the reperfusion of blood, behavioral and histological evaluations of rats were carried out according to the following procedures: As a control group 1, five rats in one group out of the remaining two groups were subjected to the same surgery as the rats in the test groups 1 to 5, and administered with 4 ml/kg body weight of PBS free of any of the compounds through their caudal veins at both after one hour of the medial cerebral artery occlusion and immediately after the start of reperfusion. As the control group 2, six rats in the remaining one group were subjected to a sham surgery, in which common, external, and internal carotid arteries were clipped and then reperfused their blood without inserting the obturator to each medial cerebral artery. […]

In data set [4] the test system is brain ischemia rat. Nature of the data set: Brain ischemia (cerebral infarction model) rat: size/volume of cerebral infarction region (TTC). The class given is in vivo. To be noted: for Volume of cerebral infarction region (mm^3): embolus rat, caudal vein.
Data set [5] in a line: Hydroxyl radical-scavenging activity, ESR (Fenton reaction). How it is done: Stock solutions, prepared by dissolving NK-4, NK-19, NK-53, NK-100, and NK-557 in DMSO, were respectively diluted with refined water to give concentrations of 3-folds higher than those in Table 14 and used as test sample solutions. As a positive control, a neuroprotectant, “edaravone”, commercialized as “RADICUT®” containing 3-methyl-1-phenyl-2-pyrazoline-5-one as an effective ingredient by Mitsubishi Tanabe Pharma Corporation, Osaka, Japan, was diluted with refined water to give a concentration of 3-folds higher than that in Table 14 for use. To 50 μl of refined water, 50 μl of 89 mM DMPO ([…]) commercialized by Dojindo Laboratories, Kumamoto, Japan, 50 μl of the test sample solution, and 50 μl of an aqueous solution containing 1 mM hydrogen peroxide, 1 mM FeSO4, and 1 mM DTPA, commercialized by Wako Pure Chemical Industries, Osaka, Japan, were added, mixed for 10 seconds using a vortex mixer and allowed to react in an incubator controlled at 37° for 40 seconds. After 30 seconds from completion of the reaction, the resulting reaction mixture was subjected to ESR measurement. A control solution was prepared by the same method as above except for using 50 μl of a diluted edaravone solution as a substitute for the test sample solution, and subjected to ESR measurement.
The reaction mixture for measuring hydroxyl or peroxyl radicals was poured into a flat quartz cell for ESR, set to “FREE RADICAL MONITOR JES-FR30”, an ESR apparatus commercialized by JOEL Ltd., Tokyo, Japan, and ESR was measured according to manual manner. The residual ratio of peroxyl radical (%) was determined as a relative value by defining the ESR value, obtained by using 0.1 M phosphate buffer as a substitute of the test sample solution, as 100. The results are in Tables 14 and 15. […] Therefore, the IC50 of edaravone was determined by another test using its higher concentration, and the result is also shown in Table 14. The conditions of the ESR measurement were set as follows: […]

[6] abbreviates: Experiment 13, cerebral-infarction-model rat, administered through caudal vein.

Procedure for PC12-HS cells: 6-Hydroxy dopa was used as a cytotoxic agent. Similarly as in Experiment 1, PC12-HS cells, which had been cultured in D-MEM medium supplemented with 10 v/v % FBS, were inoculated to 96-well microplates by 2×10^4/100 μl/well. […] Thereafter, the cells were fixed with 10% glutaraldehyde and the absorbance at 650 nm was measured by conventional dye-uptake method using methylene blue.

For `COc1cc2c(cc1OC)C(=O)C(CC1CCN(Cc3ccccc3)CC1)C2` (stereo not shown) [Donepezil HCl], the “Passive avoidance reaction” value in the data set on APP Tg mouse [1] was 200 ± 61 s. Moreover, in the data set on APP Tg mouse [2] (1st day), the “Water maze test 1st day” value came to 120 ± 0. Further, the “Water maze test 2nd day” value in the data set on APP Tg mouse [2] (2nd day) came to 77 ± 19. The “Water maze test 3rd day” value in the data set with APP Tg mouse [2] (3rd day) is reported as 53 ± 13. Also, the “Water maze test 4th day” value in the data set on APP Tg mouse [2] (4th day) amounted to 62 ± 16.
Turning to `CC1=NN(c2ccccc2)C(=O)C1` [Edaravone, 3-methyl-1-phenyl-2-pyrazoline-5-one, reference compound], in the data set on PC12-HS cells, the “suppression of cytotoxicity by 6-hydroxy dopa (in words)” value was “can not suppress the cytotoxicity”. In the data set with brain ischemia rat [3] (setting [6]), the “behavioral score (in words)” value is “significantly improved”. Moreover, the Behavioral score with brain ischemia rat [3] (dose 0.3 mg per kg body weight) came to 4.7 ± 0.4; with brain ischemia rat [3] (dose 1 mg per kg body weight) it was 3.7 ± 0.5; in the data set on brain ischemia rat [3] (dose 3 mg per kg body weight) it was 4.8 ± 0.2. The “increment of the volume of cerebral infarction region (in words)” value with brain ischemia rat [4] (setting [6]) is “not significantly suppressed”. Further, the “Volume of cerebral infarction region (mm^3)” value is reported as 179 ± 27 mm^3 in the data set on brain ischemia rat [4] (dose 0.3 mg per kg body weight), 152 ± 28 mm^3 in the data set with brain ischemia rat [4] (dose 1 mg per kg body weight) and 183 ± 16 mm^3 in the data set on brain ischemia rat [4] (dose 3 mg per kg body weight). Besides, the “IC50 (μg/ml) of hydroxyl radical-scavenging activity” value in data set [5] is 148.0 µg/mL. The “Residual ratio of hydroxyl radical (%)” value in data set [5] (concentration of compound 2.5 μg/ml), in data set [5] (concentration of compound 3.13 μg/ml), in data set [5] (concentration of compound 6.25 μg/ml) and in data set [5] (concentration of compound 12.5 μg/ml) was 100% throughout.
